Assay results from US20070082397A1, “Ex vivo progenitor and stem cell expansion for use in the treatment of disease of endodermally-derived organs” (priority 2003, published 2007).
“Also recorded” adds a separate entry of the source.

How the values were obtained:
[1] = test system: hepatocytes from adult mouse livers; assay: Primary adult mouse hepatocyte culture: expansion of hepatic stem (oval) cells; assay type: cell-based; conditions: for oval cells in hepatocyte culture: medium supplemented with 10 μM AGN 194310 or TEPA 10 μM, FIG. 1; for growth of cultured hepatocytes and appearance of hepatic stem (oval) cells: primary culture with EGF and HGF, TEPA 10 μM or AGN 194310 10 μM, compared with control cultures without additions
Procedure: Intact livers were harvested from 3 week old VLVC female mice (Harlan Laboratories, Jerusalem, Israel), dissected and washed twice with DMEM (Beit Haemek, Israel), incubated with DMEM in the presence 0.05% collagenase for 30 minutes at 37° C., ground and passed through a 200 μm mesh sieve, yielding individual hepatocytes. Cells were washed twice and viability was ascertained with trypan blue. Cells were plated in collagen-coated, 35 mm tissue culture plates at a density of 4-×10^4 live cells/ml in F12 media (containing 15 mM Hepes, 0.1% glucose, 10 mM sodium bicarbonate, 100 units/ml penicillin-streptomycin, glutamine, 0.5 units/ml insulin, 7.5 m cg/ml hydrocortisone, and 10% fetal bovine serum). Medium was changed after 12 hours, the cells were washed twice with phosphate buffered saline (PBS) and new medium was added. Medium was changed twice a week.
Hepatocytes were also grown in the presence of Epidermal Growth Factor (EGF), Platelet-Derived Growth Factor β chain (PDGF-BB), Fibroblast growth Factors (FGF-4) and Hepatocyte Growth Factor (HGF), at 20-50 ng/ml each, for the entire culturing period according to the method of Schwartz et al. (Schwartz R E, Reyes M, Koodie L, Jiang Y, Blackstad M, Lund T, Lenvik T, Johnson S, Hu W S, Verfaillie C M. Multipotent adult progenitor cells from bone marrow differentiate into functional hepatocyte-like cells. J Clin Invest. 2002; 109 (10): 1291-302). Hepatocytes were also grown in serum free medium according to the method of Runge et al. (Runge D, Runge D M, Jager D, Lubecki K A, Beer Stolz D, Karathanasis S, Kietzmann T, Strom S C, Jungermann K, Fleig W E, Michalopoulos G K. Serum-free, long-term cultures of human hepatocytes: maintenance of cell morphology, transcription factors, and liver-specific functions. Biochem Biophys Res Commun. 2000; 269(1): 46-53).
In all of the above-mentioned hepatocytes culture conditions, cells are grown in the presence or absence of the retinoic acid antagonist AGN 194310 or the transition metal chelator tetraethylenepentamine TEPA) at 10^−5 M.
After a period of 3 weeks, cultures treated with 10^−5 M AGN 194310 or TEPA were detached with 0.25% trypsin, split and replated at a 1:2 ratio. The cells were visualized with Giemsa staining.
Murine hepatocyte cultures supplemented with EGF and HGF were evaluated as primary cultures, or following first and second passages. First passage cultures were grown for 2 weeks, split 1:2 and cells stained 8 days later. Second passage cultures were similarly grown for 2 weeks, split 1:2, and grown for an additional week, then split 1:4 and similarly stained 4 days later.
Hepatocytes and ex-vivo expanded cells were fixed in methanol directly in their cell culture plates and each procedure performed by standard procedures as outlined below.
Ex-vivo expanded cells and hepatocytes were stained with Giemsa stain, according to manufacturer's instructions (Shandon, Pittsburg, Pa.) for 4 minutes at room temperature, washed in buffer solution for 4 minutes, washed 3-4 times with rinse solution and visualized by light microscopy. Nuclei were stained with hematoxylin (Dako, Carpinteria, Calif.).

[2] = test system: stem and progenitor hematopoietic cells; conditions: cited from earlier work
[3] = test system: cord-blood-derived, bone marrow-derived, and peripheral blood derived stem and progenitor cells; conditions: grown without a feeder layer; cited from earlier work
[4] = test system: erythroid progenitor cells, cultured mouse erythroleukemia cells, embryonal stem cells, and hepatocytes in primary hepatocyte culture; conditions: cited from earlier work
[5] = cited from earlier work

| SMILES | oval cells in hepatocyte culture [1] | growth of cultured hepatocytes and appearance of hepatic stem (oval) cells [1] | persistence of treated hepatocyte cultures in culture ([1]; primary hepatocyte cultures) | long term ex vivo stem cell proliferation and differentiation [2] | fraction of CD34+ cells and their long-term clonability [3] | proliferation and differentiation [4] | membrane permeability [5] |
| --- | --- | --- | --- | --- | --- | --- | --- |
| NCCNCCNCCNCCN [TEPA, tetraethylenepentamine] | abundance of oval cells; also recorded: increase in the proportion of oval cells | clearly induced growth of the cultured hepatocytes, and the appearance of hepatic stem (oval) cells | at least 3 weeks | effective promotion of long term ex vivo stem cell proliferation, while inhibiting differentiation | greatly enhanced the fraction of CD34^+ cell and their long-term clonability | Facilitation of proliferation while inhibiting differentiation |  |
| O=c1cc(N2CCOCC2)oc2c(-c3ccccc3)cccc12 [LY294002] |  |  |  |  |  |  | membrane permeable |
| CCc1ccc(C2=CC(C)(C)Sc3ccc(C#Cc4ccc(C(=O)O)cc4)cc32)cc1 [AGN 194310] | abundance of oval cells | clearly induced growth of the cultured hepatocytes, and the appearance of hepatic stem (oval) cells |  |  |  |  |  |
